Laboratory results as given in patent US8389523B2, “Substituted quinoxaline and an agrochemical composition thereof” (Kumiai Chemical Industry Co., Ltd., priority 2007, dated 2013).

Columns and labels:
Assay type in all cases: in vivo
Parameters in all cases: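 grade 0 to 5 of growth suppression where 5 is 90% or more and 0 below 10%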
[1] = system: Monochoria vaginalis (Burm. f.) Presl var. plantaginea (Roxb.) Solms-Laub.; test: Herbicidal effects in paddy field soil treatment (Test Example 1); details: paddy field soil treatment; 1000 g of the active ingredient per hectare; wettable powder added dropwise on water surface; 21st day after treatment
Procedure, shortened: (§1)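 Flooded-paddy soil treatment under greenhouse conditions: a diluted wettable powder at 1000 g a.i./ha went onto the water surface one day post-sowing, with 3 cm standing water, and weed control was graded on a scoring scale 21 days after treatment.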

[2] = system: Scirpus juncoides Roxb. var. ohwianus. T. Koyama; test: as above; details: paddy field soil treatment; 1000 g of the active ingredient per hectare; wettable powder added dropwise on water surface; 21st day after treatment
Procedure, shortened: as §1

[3] = system: Echinochloa oryzicola Vasing; test: as above; details: paddy field soil treatment; 1000 g of the active ingredient per hectare; wettable powder added dropwise on water surface; 21st day after treatment
Procedure, shortened: as §1

[4] = system: Echinochloa crus-galli (L.) P. Beauv. var. crus-galli; test: Herbicidal effects in upland field foliar treatment (Test Example 3); details: 1000 g of the active ingredient per hectare, 14th day after the treatment, wettable powder, criteria of Table 138
Procedure, shortened: (§2)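 Post-emergence foliar treatment: two-week-old seedlings from upland field soil received 1000 g a.i./ha (wettable powder, 1000 L water/ha), then returned to the greenhouse for scoring 14 days later.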

[5] = system: Abutilon theophrasti medicus; test: as above; details: 1000 g of the active ingredient per hectare, 14th day after the treatment, wettable powder, criteria of Table 138
Procedure, shortened: as §2

Amaranthus viridis L. [6] = test: as above; details: 1000 g of the active ingredient per hectare, 14th day after the treatment, wettable powder, criteria of Table 138
Procedure, shortened: as §2

[7] = system: Abutilon theophrasti medicus; test: Herbicidal effects in upland field soil treatment (Test Example 2); details: 1000 g active ingredient per hectare, 21st day after treatment, criteria of Table 138
Procedure, shortened: (§3)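 Soil-applied before emergence at 1000 g a.i./ha as water-diluted wettable powder; greenhouse-grown plants rated for herbicidal damage 21 days post-treatment.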

Amaranthus viridis L. [8] = test: as above; details: 1000 g active ingredient per hectare, 21st day after treatment, criteria of Table 138
Procedure, shortened: as §3

| SMILES | Herbicidal effects index, Monochoria vaginalis (Burm. f.) Presl var. plantaginea (Roxb.) Solms-Laub. [1] | Herbicidal effects index, Scirpus juncoides Roxb. var. ohwianus. T. Koyama [2] | Herbicidal effects index, Echinochloa oryzicola Vasing [3] | herbicidal effects on Echinochloa crus-galli (L.) P. Beauv. var. crus-galli [4] | herbicidal effects on Abutilon theophrasti medicus [5] | herbicidal effects on Amaranthus viridis L. (Amaranthus viridis L. [6]) | herbicidal effect (index) on Abutilon theophrasti medicus [7] | herbicidal effect (index) on Amaranthus viridis L. (Amaranthus viridis L. [8]) |
| --- | --- | --- | --- | --- | --- | --- | --- | --- |
| COCC(C)n1c(=O)c(C(=O)C2=C(O)CCCC2=O)nc2cccnc21 (stereo not drawn) [III-90] | 5 | 5 | 5 | 5 | 5 | 5 | 5 | 5 |
| CCOC(=O)Cn1c(=O)c(C(=O)C2=C(O)CCCC2=O)nc2cccnc21 [III-96] | 5 | 5 | 5 | 5 | 5 | 5 | 5 | 5 |
| CC(C)(C)OC(=O)Cn1c(=O)c(C(=O)C2=C(O)CCCC2=O)nc2cccnc21 [III-99] | 5 | 5 | 5 | 4 | 5 | 5 | 5 | 5 |
| O=C1CCCC(O)=C1C(=O)c1nc2cccnc2n(Cc2ccccc2)c1=O [III-107] | 5 | 5 | 5 | 4 | 5 | 5 | 4 | 5 |
| O=C1CCCC(O)=C1C(=O)c1nc2cccnc2n(Cc2ccccc2F)c1=O [III-108] | 5 | 5 | 5 | 5 | 5 | 5 | 5 | 5 |
| O=C1CCCC(O)=C1C(=O)c1nc2cccnc2n(Cc2ccccc2Cl)c1=O [III-111] | 5 | 5 | 5 | 5 | 5 | 5 | 5 | 5 |
| O=C1CCCC(O)=C1C(=O)c1nc2cccnc2n(Cc2ccccc2C(F)(F)F)c1=O [III-117] | 5 | 5 | 5 | 5 | 5 | 5 | 5 | 5 |
| O=C1CCCC(O)=C1C(=O)c1nc2cccnc2n(Cc2cccc(C(F)(F)F)c2)c1=O [III-118] | 5 | 5 | 5 | 5 | 5 | 5 | 5 | 5 |
| COc1ccccc1Cn1c(=O)c(C(=O)C2=C(O)CCCC2=O)nc2cccnc21 [III-120] | 5 | 5 | 5 | 5 | 5 | 5 | 4 | 5 |
